The text below walks through data of patent US6924300B2, “Oxyiminoalkanoic acid derivatives” (Takeda Chemical Industries, Ltd., priority 1998, dated 2005).

On to `Cc1oc(-c2ccccc2)nc1COc1ccc(CO/N=C(\CCCCCCCC(=O)O)c2ccccc2)cc1` [Example 73, E-9-[4-(5-methyl-2-phenyl-4-oxazolylmethoxy)benzyloxyimino]-9-phenylnonanoic acid], for which the melting point (commonly the temperature of the solid-liquid transition) was 67 to 68 °C. Under `Cc1oc(-c2ccccc2)nc1COc1cccc(CO/N=C(\CCCCC(=O)O)c2ccccc2)c1` [Example 76, E-6-[3-(5-methyl-2-phenyl-4-oxazolylmethoxy)benzyloxyimino]-6-phenylhexanoic acid] stands 114 to 115 °C; under `Cc1oc(-c2ccccc2)nc1COc1cccc(CO/N=C(\CCC(=O)O)c2ccccc2)c1` [Example 77, E-4-[3-(5-methyl-2-phenyl-4-oxazolylmethoxy)benzyloxyimino]-4-phenylbutyric acid], 108 to 109 °C. Under `Cc1oc(-c2ccccc2)nc1COc1ccc(CO/N=C(\CCCCC(N)=O)c2ccccc2)cc1` [Example 82, E-6-[4-(5-methyl-2-phenyl-4-oxazolylmethoxy)benzyloxyimino]-6-phenylhexanamide] stands 95 to 96 °C; under `O=C(O)CC/C(=N\OCc1ccc(OCc2cc(-c3ccccc3)no2)cc1)c1ccccc1` [Example 87, E-4-phenyl-4-[4-(3-phenyl-5-isoxazolylmethoxy)benzyloxyimino]butyric acid], 96 to 97 °C.

With `O=C(O)CC/C(=N\OCc1ccc(OCc2cc(-c3ccccc3)on2)cc1)c1ccccc1` [Example 90, E-4-phenyl-4-[4-(5-phenyl-3-isoxazolylmethoxy)benzyloxyimino]butyric acid], the melting point lay in the range of 100 to 101 °C.

In turn, `Cc1sc(-c2ccccc2)nc1COc1ccc(CO/N=C(\CCC(=O)O)c2ccccc2)cc1` [Example 91, E-4-[4-(5-methyl-2-phenyl-4-thiazolylmethoxy)benzyloxyimino]-4-phenylbutyric acid] came in with a melting point of 99 to 100 °C. In the case of `Cc1oc(-c2ccco2)nc1COc1ccc(CO/N=C(\CCC(=O)O)c2ccccc2)cc1` [Example 94, E-4-[4-[2-(2-furyl)-5-methyl-4-oxazolylmethoxy]benzyloxyimino]-4-phenylbutyric acid] it was 124 to 125 °C; in that of `Cc1oc(-c2cccs2)nc1COc1ccc(CO/N=C(\CCC(=O)O)c2ccccc2)cc1` [Example 97, E-4-[4-[5-methyl-2-(2-thienyl)-4-oxazolylmethoxy]benzyloxyimino]-4-phenylbutyric acid], 142 to 143 °C; in that of `O=C(O)CC/C(=N\OCc1ccc(OCc2ccccc2)cc1)c1ccccc1` [Example 98, E-4-(4-benzyloxybenzyloxyimino)-4-phenylbutyric acid], 86 to 87 °C. In the case of `O=C(O)CC/C(=N\OCc1ccc(OCc2cn3ccccc3n2)cc1)c1ccccc1` [Example 101, E-4-[4-(imidazo[1,2-a]pyridin-2-ylmethoxy)benzyloxyimino]-4-phenylbutyric acid] it was 180 to 182 °C.

With `O=C(O)CC/C(=N\OCc1ccc(OCc2coc(-c3ccccc3)n2)cc1)c1ccccc1` [Example 102, E-4-phenyl-4-[4-(2-phenyl-4-oxazolylmethoxy)benzyloxyimino]butyric acid], the melting point lay in the range of 144 to 145 °C. In the case of `O=C(O)CC/C(=N\OCc1ccc(OCc2ccc3ccccc3n2)cc1)c1ccccc1` [Example 104, E-4-phenyl-4-[4-(2-quinolinylmethoxy)benzyloxyimino]butyric acid] it was 133 to 134 °C. In the case of `O=C(O)CC/C(=N\OCc1ccc(OCc2csc(-c3ccccc3)n2)cc1)c1ccccc1` [Example 108, E-4-phenyl-4-[4-(2-phenyl-4-thiazolylmethoxy)benzyloxyimino]butyric acid] it was 104 to 105 °C; in that of `Cc1oc(-c2ccccc2)nc1COc1ccc(CO/N=C(/c2ccccc2)C(C)(C)C(=O)O)cc1` [Example 110, Z-2,2-dimethyl-3-[4-(5-methyl-2-phenyl-4-oxazolylmethoxy)benzyloxyimino]-3-phenylpropionic acid], 142 to 143 °C (dec.); in that of `Cc1oc(-c2ccccc2)nc1COc1ccc(CO/N=C(\CC(N)=O)c2ccccc2)cc1` [Example 111, E-3-[4-(5-methyl-2-phenyl-4-oxazolylmethoxy)benzyloxyimino]-3-phenylpropanamide], 164 to 165 °C.

`Cc1oc(-c2ccccc2)nc1COc1ccc(CO/N=C(\CCCCCC(=O)O)c2ccccc2)cc1` [Example 115, E-7-[4-(5-methyl-2-phenyl-4-oxazolylmethoxy)benzyloxyimino]-7-phenylheptanoic acid] came in with a melting point of 84 to 85 °C. Under `COc1ccc(/C(CCCCCCC(=O)O)=N/OCc2ccc(OCc3nc(-c4ccccc4)oc3C)cc2)cc1` [Example 118, E-8-(4-methoxyphenyl)-8-[4-(5-methyl-2-phenyl-4-oxazolylmethoxy)benzyloxyimino]octanoic acid] stands 69 to 70 °C; under `Cc1oc(-c2ccccc2)nc1COc1ccc(CO/N=C(\CCCCCCC(=O)O)c2ccc(Cl)cc2)cc1` [Example 123, E-8-(4-chlorophenyl)-8-[4-(5-methyl-2-phenyl-4-oxazolylmethoxy)benzyloxyimino]octanoic acid], 90 to 91 °C. As to `Cc1oc(-c2ccccc2)nc1COc1ccc(CO/N=C(/CCCCCCC(=O)O)c2ccc(Cl)cc2)cc1` [Example 124, Z-8-(4-chlorophenyl)-8-[4-(5-methyl-2-phenyl-4-oxazolylmethoxy)benzyloxyimino]octanoic acid], the melting point fell in the range of 54 to 57 °C. In the case of `Cc1oc(-c2ccccc2)nc1COc1ccc(CO/N=C(\CCCCCCC(=O)O)c2ccc(F)cc2)cc1` [Example 125, E-8-(4-fluorophenyl)-8-[4-(5-methyl-2-phenyl-4-oxazolylmethoxy)benzyloxyimino]octanoic acid] it was 79 to 80 °C; in that of `Cc1oc(-c2ccccc2)nc1COc1ccc(CO/N=C(/CCCCCCC(=O)O)c2ccc(F)cc2)cc1` [Example 126, Z-8-(4-fluorophenyl)-8-[4-(5-methyl-2-phenyl-4-oxazolylmethoxy)benzyloxyimino]octanoic acid], 56 to 57 °C; in that of `O=C(O)CCCCCC/C(=N\OCc1ccc(OCc2noc(-c3ccccc3)n2)cc1)c1ccccc1` [Example 128, E-8-phenyl-8-[4-(5-phenyl-1,2,4-oxadiazol-3-ylmethoxy)benzyloxyimino]octanoic acid], 76 to 77 °C. In the case of `Cc1oc(-c2ccco2)nc1COc1ccc(CO/N=C(\CCCCCCC(=O)O)c2ccccc2)cc1` [Example 129, E-8-[4-[2-(2-furyl)-5-methyl-4-oxazolylmethoxy]benzyloxyimino]-8-phenyloctanoic acid] it was 75 to 77 °C; in that of `Cc1oc(-c2cccs2)nc1COc1ccc(CO/N=C(\CCCCCCC(=O)O)c2ccccc2)cc1` [Example 130, E-8-[4-[5-methyl-2-(2-thienyl)-4-oxazolylmethoxy]benzyloxyimino]-8-phenyloctanoic acid], 106 to 108 °C. As for `Cc1oc(-c2ccco2)nc1COc1ccc(CO/N=C(\CCCCC(=O)O)c2ccccc2)cc1` [Example 132, E-6-[4-[2-(2-furyl)-5-methyl-4-oxazolylmethoxy]benzyloxyimino]-6-phenylhexanoic acid], the melting point lay in the range of 112 to 113 °C.

`Cc1oc(-c2cccs2)nc1COc1ccc(CO/N=C(\CCCCC(=O)O)c2ccccc2)cc1` [Example 135, E-6-[4-[5-methyl-2-(2-thienyl)-4-oxazolylmethoxy]benzyloxyimino]-6-phenylhexanoic acid] returned a melting point of 101 to 102 °C.

As to `O=C(O)CCCC/C(=N\OCc1ccc(OCc2noc(-c3ccccc3)n2)cc1)c1ccccc1` [Example 136, E-6-phenyl-6-[4-(5-phenyl-1,2,4-oxadiazol-3-ylmethoxy)benzyloxyimino]hexanoic acid], the melting point was in the range of 88 to 89 °C.

Molecule `O=C(O)CCCC/C(=N\OCc1ccc(OCc2nc(-c3ccccc3)no2)cc1)c1ccccc1` [Example 138, E-6-phenyl-6-[4-(3-phenyl-1,2,4-oxadiazol-5-ylmethoxy)benzyloxyimino]hexanoic acid] gave a melting point of 91 to 92 °C. Molecule `Cc1oc(-c2ccccc2)nc1COc1ccc(CO/N=C(/CCC(N)=O)c2ccccc2)cc1` [Example 139, Z-4-[4-(5-methyl-2-phenyl-4-oxazolylmethoxy)benzyloxyimino]-4-phenylbutanamide] showed a melting point of 110 to 112 °C. Under `Cc1oc(-c2ccccc2)nc1COc1ccc(CO/N=C(\CCCC(C)(C)C(=O)O)c2ccccc2)cc1` [Example 141, E-2,2-dimethyl-6-[4-(5-methyl-2-phenyl-4-oxazolylmethoxy)benzyloxyimino]-6-phenylhexanoic acid] stands 111 to 112 °C. Under `Cc1oc(-c2ccccc2)nc1COc1ccc(CO/N=C(\CCCCC(=O)NS(C)(=O)=O)c2ccccc2)cc1` [Example 142, E-N-methanesulfonyl-6-[4-(5-methyl-2-phenyl-4-oxazolylmethoxy)benzyloxyimino]-6-phenylhexanamide] stands 130 to 132 °C; under `Cc1oc(-c2ccccc2)nc1COc1ccccc1CO/N=C(\CCC(=O)O)c1ccccc1` [Example 144, E-4-[2-(5-methyl-2-phenyl-4-oxazolylmethoxy)benzyloxyimino]-4-phenylbutyric acid], 116 to 117 °C. In the case of `COc1cc(CO/N=C(\CCC(=O)O)c2ccccc2)cc(OC)c1OCc1nc(-c2ccccc2)oc1C` [Example 146, E-4-[3,5-dimethoxy-4-(5-methyl-2-phenyl-4-oxazolylmethoxy)benzyloxyimino]-4-phenylbutyric acid] it was 89 to 90 °C.

The molecule `COC(=O)CC/C(=N\OCc1ccc(OCc2nc(-c3ccco3)oc2C)c(OC)c1)c1ccccc1` [Example 147, methyl E-4-[4-[2-(2-furyl)-5-methyl-4-oxazolylmethoxy]-3-methoxybenzyloxyimino]-4-phenylbutyrate] showed a melting point of 67 to 69 °C. In the case of `COc1cc(CO/N=C(\CCC(=O)O)c2ccccc2)ccc1OCc1nc(-c2ccco2)oc1C` [Example 148, E-4-[4-[2-(2-furyl)-5-methyl-4-oxazolylmethoxy]-3-methoxybenzyloxyimino]-4-phenylbutyric acid] it was 131 to 132 °C.
